Assays:
[1] = test system: human colorectal cancer cell line HCT-8 cells; assay: Sensor device response to depolarization induced by KCl; format: cell-based
Description: (§1) In the present example, the sensor device 200 shown in FIG. 2 was used for detection, wherein the distance between the response electrode of the sensor device and the gate end: 65 μm; and the area of the detection region: 10×60 μm^2. Moreover, a specific aptamer of a human colorectal cancer cell line HCT-8 cell was bonded to the response electrode of the sensor device.
(§2) In the present embodiment, source and drain properties were measured and recorded using an Agilent B1530/B1500A semiconductor parameter analyzer. Operating conditions: VD=2.5 V; Vg=2 V; pulse duration=50 μs. The change in source current before and after a gate bias is applied is defined as the current gain.
In the present embodiment, human colorectal cancer cell line HCT-8 cells were used as the target cells. The HCT-8 cells were cultured in an RPMI-1640 cell culture medium (Invitrogen Co., USA). During a subsequent electrical measurement, the HCT-8 cells were suspended in a Hank balanced salt solution having calcium ions and magnesium ions (hereinafter HBSS w/Ca&Mg), a Hank balanced salt solution without calcium ions and magnesium ions (hereinafter HBSS w/o Ca&Mg), or a Hank balanced salt solution having calcium ions (hereinafter HBSS w/Ca) to prepare a test solution. In the Hank balanced salt solution having calcium ions and magnesium ions (HBSS w/Ca&Mg), the calcium ions were 1.2 mM and the magnesium ions are 0.8 mM. […]

[2] = test system: human colorectal cancer cell line HCT-8 cells; assay: Cadmium block of calcium channels (sensor device response); format: cell-based
Description: as §1, §2
In the present embodiment, human colorectal cancer cell line HCT-8 cells were used as the target cells. The HCT-8 cells were cultured in an RPMI-1640 cell culture medium (Invitrogen Co., USA). […]
In experimental example 3, HBSS w/Ca and HBSS w/Ca containing different cadmium ion concentrations (5 uM, 10 uM, 20 uM, 50 uM, and 100 uM) are used as reference solutions, and the baselines of the sensor device were calculated using the reference solutions. […]

SMILES | value of the detection current (second current gain minus first current gain, Δ current gain) ([1]; KCl concentration of 5 mM in HBSS w/Ca&Mg, cells have polarized potential) | value of the detection current (second current gain minus first current gain, Δ current gain) ([1]; KCl concentration of 10 mM to 30 mM in HBSS w/Ca&Mg, cells depolarized) | value of the detection current (Δ current gain) ([2]; cadmium concentration further increased from 20 μM to 100 μM in HBSS w/Ca, cells depolarized) | detection current (Δ current gain) ([2]; cadmium ion concentrations of 10 μM and 20 μM in HBSS w/Ca, cells repolarized)
[Cl-].[K+] [KCl] | positive | negative | – | –
[Cd+2] [cadmium ion] | – | – | negative | positive

Reference: patent US11029279B2, “Method of detecting cells” (National Tsing Hua University, priority 2018, dated 2021)
